Source: ChEMBL document CHEMBL1134746, “[3-cis-3,5-Dimethyl-(1-piperazinyl)alkyl]-bis-(4'-fluorophenyl)amine analogues as novel probes for the dopamine transporter” (Bioorg Med Chem Lett, 2001)

Legend:
[1] = tested on: Mus musculus; assay: Tested for rate of horizontal activity during a 30-min period after administration of compound at a concentration of 50 mg/kg; type: functional
[2] = tested on: Mus musculus; assay: Tested for rate of horizontal activity during a 30-min period after administration of compound at a concentration of 30 mg/kg; type: functional
[3] = tested on: Mus musculus; assay: Tested for rate of horizontal activity during a 30-min period after administration of compound at a concentration of 10 mg/kg; type: functional
[4] = tested on: Mus musculus; assay: Tested for rate of horizontal activity during a 30-min period after administration of compound at a concentration of 5 mg/kg; type: functional
[5] = molecular target: Sodium-dependent dopamine transporter (Rattus norvegicus, UniProt P23977); assay: Binding affinity at Dopamine transporter by displacing [3H]WIN-35428 from rat caudate putamen; type: tissue-based
Chain of Sodium-dependent dopamine transporter (P23977 whole entry): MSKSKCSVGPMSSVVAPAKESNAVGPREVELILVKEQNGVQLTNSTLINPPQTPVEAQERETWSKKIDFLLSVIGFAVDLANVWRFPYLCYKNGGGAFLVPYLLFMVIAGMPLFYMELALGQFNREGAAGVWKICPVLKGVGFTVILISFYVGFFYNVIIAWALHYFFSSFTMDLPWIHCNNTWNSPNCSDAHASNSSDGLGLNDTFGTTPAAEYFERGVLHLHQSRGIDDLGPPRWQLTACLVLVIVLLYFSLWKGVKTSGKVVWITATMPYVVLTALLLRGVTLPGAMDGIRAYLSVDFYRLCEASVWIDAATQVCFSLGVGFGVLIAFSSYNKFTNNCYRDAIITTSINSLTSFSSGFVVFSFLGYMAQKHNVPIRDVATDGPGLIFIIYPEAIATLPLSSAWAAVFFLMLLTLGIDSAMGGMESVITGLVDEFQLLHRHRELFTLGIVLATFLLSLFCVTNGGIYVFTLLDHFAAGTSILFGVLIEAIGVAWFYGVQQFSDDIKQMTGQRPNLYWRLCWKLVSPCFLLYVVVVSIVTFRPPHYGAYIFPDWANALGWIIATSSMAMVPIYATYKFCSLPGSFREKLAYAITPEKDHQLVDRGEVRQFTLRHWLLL

[6] = tested on: Monoamine transporters; Norepinephrine & dopamine (Rattus norvegicus); assay: Selectivity ratio of DAT to that of NET receptor
[7] = tested on: Monoamine transporters; serotonin & dopamine (Rattus norvegicus); assay: Selectivity ratio for DAT to SERT evaluated
[8] = molecular target: Norepinephrine transporter (Rattus norvegicus, UniProt Q9WTR4); assay: Binding affinity at norepinephrine transporter using [3H]nisoxetine as radioligand from rat brain
Chain of Norepinephrine transporter (Q9WTR4 whole entry): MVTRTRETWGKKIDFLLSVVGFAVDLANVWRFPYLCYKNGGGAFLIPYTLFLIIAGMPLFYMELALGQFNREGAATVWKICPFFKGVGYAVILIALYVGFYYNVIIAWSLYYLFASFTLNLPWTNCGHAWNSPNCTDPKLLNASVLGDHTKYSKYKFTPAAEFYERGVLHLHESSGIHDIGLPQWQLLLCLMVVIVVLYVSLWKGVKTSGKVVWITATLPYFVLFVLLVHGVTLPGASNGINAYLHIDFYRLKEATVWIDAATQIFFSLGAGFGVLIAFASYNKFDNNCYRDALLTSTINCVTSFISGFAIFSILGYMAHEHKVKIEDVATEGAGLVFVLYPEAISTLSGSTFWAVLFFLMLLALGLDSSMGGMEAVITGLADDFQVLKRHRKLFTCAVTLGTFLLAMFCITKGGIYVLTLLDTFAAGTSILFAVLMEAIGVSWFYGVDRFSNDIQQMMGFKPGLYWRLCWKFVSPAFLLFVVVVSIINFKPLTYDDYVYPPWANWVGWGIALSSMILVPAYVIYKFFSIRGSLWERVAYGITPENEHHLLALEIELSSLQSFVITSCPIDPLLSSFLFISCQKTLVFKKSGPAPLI

[9] = molecular target: Sodium-dependent serotonin transporter (Rattus norvegicus, UniProt P31652); assay: Binding affinity at Serotonin transporter using [3H]citalopram as radioligand from rat brain
Chain of Sodium-dependent serotonin transporter (P31652 whole entry): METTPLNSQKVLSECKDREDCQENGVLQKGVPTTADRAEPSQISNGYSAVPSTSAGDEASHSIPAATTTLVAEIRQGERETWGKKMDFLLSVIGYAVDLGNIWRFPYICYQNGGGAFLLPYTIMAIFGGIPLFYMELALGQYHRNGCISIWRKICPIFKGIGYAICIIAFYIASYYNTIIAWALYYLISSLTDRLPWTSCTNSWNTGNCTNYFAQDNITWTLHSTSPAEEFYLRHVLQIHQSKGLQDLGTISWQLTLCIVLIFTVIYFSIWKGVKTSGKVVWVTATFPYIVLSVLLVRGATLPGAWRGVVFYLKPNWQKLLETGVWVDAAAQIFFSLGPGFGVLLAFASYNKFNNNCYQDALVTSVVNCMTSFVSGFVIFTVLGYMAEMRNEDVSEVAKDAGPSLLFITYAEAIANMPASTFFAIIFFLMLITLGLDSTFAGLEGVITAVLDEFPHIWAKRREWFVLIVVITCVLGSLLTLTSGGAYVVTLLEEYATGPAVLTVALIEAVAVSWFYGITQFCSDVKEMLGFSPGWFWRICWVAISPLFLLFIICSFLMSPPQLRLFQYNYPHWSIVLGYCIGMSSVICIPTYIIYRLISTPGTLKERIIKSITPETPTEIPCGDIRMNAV

[10] = tested on: Mus musculus; assay: Tested for rate of horizontal activity during a 30-min period after administration of compound at a concentration of 3 mg/kg; type: functional
[11] = tested on: Mus musculus; assay: Tested for rate of horizontal activity during a 30-min period after administration of compound at a concentration of 100 mg/kg; type: functional
[12] = tested on: Mus musculus; assay: Tested for rate of horizontal activity during a 30-min period after administration of compound at a concentration of 1.0 mg/kg; type: functional
[13] = tested on: Mus musculus; assay: Tested for rate of horizontal activity during a 30-min period after administration of compound at a concentration of 0.3 mg/kg; type: functional
[14] = tested on: Mus musculus; assay: Tested for rate of horizontal activity during a 30-min period after administration of compound at a concentration of 0.1 mg/kg; type: functional
[15] = Selectivity ratio of DAT to that of NET receptor; type: functional
[16] = Selectivity ratio for DAT to SERT evaluated; type: functional

COC(=O)[C@@H]1C2CC[C@@H](C[C@@H]1OC(=O)c1ccccc1)N2C (single isomer, unassigned) [COCAINE]
Horizontal activity [1]: 550 Counts min-1
Horizontal activity [2]: 600 Counts min-1
Horizontal activity [3]: 500 Counts min-1
Horizontal activity [4]: 300 Counts min-1

C[C@@H]1CN(CCCN(c2ccc(F)cc2)c2ccc(F)cc2)C[C@@H](C)N1
Ki [5]: 83.2 nM
Ratio [6]: 203
Ratio [7]: 158
Ki [8]: 16900 nM
Ki [9]: 13100 nM

Fc1ccc(C(OCCN2CCN(CCCc3ccccc3)CC2)c2ccc(F)cc2)cc1 [VANOXERINE]
Horizontal activity [10]: 175 Counts min-1
Horizontal activity [2]: 400 Counts min-1
Horizontal activity [3]: 300 Counts min-1
Horizontal activity [11]: 175 Counts min-1

CC1CN(CCCn2c3ccccc3c3ccccc32)C[C@@H](C)N1 (single isomer, unassigned) [RIMCAZOLE]
Horizontal activity [10]: ~175 Counts min-1
Horizontal activity [2]: ~220 Counts min-1
Horizontal activity [3]: ~250 Counts min-1
Ki [9]: 1710 nM
Horizontal activity [11]: ~0 Counts min-1

C[C@@H]1CN(CCCN(c2ccccc2)c2ccccc2)C[C@@H](C)N1CCCc1ccccc1
Ki [5]: 61 nM
Ratio [6]: 60
Ratio [7]: 20
Ki [8]: 3640 nM
Ki [9]: 1220 nM

C[C@@H]1CN(CCCN(c2ccc(F)cc2)c2ccc(F)cc2)C[C@@H](C)N1CCCc1ccccc1
Ki [5]: 17.6 nM
Horizontal activity [10]: ~240 Counts min-1
Ratio [6]: 60
Ratio [7]: 121
Ki [8]: 1020 nM
Horizontal activity [2]: ~215 Counts min-1
Horizontal activity [3]: ~250 Counts min-1
Horizontal activity [12]: ~250 Counts min-1
Horizontal activity [13]: ~210 Counts min-1
Horizontal activity [14]: ~200 Counts min-1
Ki [9]: 2130 nM
Horizontal activity [11]: ~50 Counts min-1

C[C@@H]1CN(CCCN(c2ccccc2)c2ccccc2)C[C@@H](C)N1
Ki [5]: 813 nM
Ratio [6]: 8
Ratio [7]: 87
Ki [8]: 6810 nM
Ki [9]: 70900 nM

C[C@@H]1CN(CCCN(c2ccccc2)c2ccccc2)C[C@@H](C)N1CCc1ccc(Cl)c(Cl)c1
Ki [5]: 261 nM
Ratio [15]: > 115
Ki [8]: > 30000 nM
Ratio [16]: 19
Ki [9]: 5010 nM

C[C@@H]1CN(CCCN(c2ccc(F)cc2)c2ccc(F)cc2)C[C@@H](C)N1CCc1ccc(Cl)c(Cl)c1
Ki [5]: 131 nM
Ki [8]: > 100000 nM
Ki [9]: 4300 nM
